In patent publication EP0462830B1, “Cyclic ether derivatives” (ZENECA LIMITED, priority 1990, dated 1991):

Experiments:
[1] = test system: 5-LO; assay: Test g): zymosan-induced liberation of LTB₄ within a subcutaneous air pouch of male rats; assay type: in vivo; settings: rat air pouch
[2] = molecular target: T1, 5-LO (Homo sapiens, UniProt P09917); assay: Test b): heparinised human blood challenged with calcium ionophore A23187, radioimmunoassay of LTB₄; assay type: cell-based; settings: read-out: IC₅₀ (LTB₄)
T1 construct: incubating a test compound with heparinised human blood, prior to challenge with the calcium ionophore A23187; endogenous in cells; host or cells: leukocytes in heparinised human whole blood
T1 sequence (P09917 1-674): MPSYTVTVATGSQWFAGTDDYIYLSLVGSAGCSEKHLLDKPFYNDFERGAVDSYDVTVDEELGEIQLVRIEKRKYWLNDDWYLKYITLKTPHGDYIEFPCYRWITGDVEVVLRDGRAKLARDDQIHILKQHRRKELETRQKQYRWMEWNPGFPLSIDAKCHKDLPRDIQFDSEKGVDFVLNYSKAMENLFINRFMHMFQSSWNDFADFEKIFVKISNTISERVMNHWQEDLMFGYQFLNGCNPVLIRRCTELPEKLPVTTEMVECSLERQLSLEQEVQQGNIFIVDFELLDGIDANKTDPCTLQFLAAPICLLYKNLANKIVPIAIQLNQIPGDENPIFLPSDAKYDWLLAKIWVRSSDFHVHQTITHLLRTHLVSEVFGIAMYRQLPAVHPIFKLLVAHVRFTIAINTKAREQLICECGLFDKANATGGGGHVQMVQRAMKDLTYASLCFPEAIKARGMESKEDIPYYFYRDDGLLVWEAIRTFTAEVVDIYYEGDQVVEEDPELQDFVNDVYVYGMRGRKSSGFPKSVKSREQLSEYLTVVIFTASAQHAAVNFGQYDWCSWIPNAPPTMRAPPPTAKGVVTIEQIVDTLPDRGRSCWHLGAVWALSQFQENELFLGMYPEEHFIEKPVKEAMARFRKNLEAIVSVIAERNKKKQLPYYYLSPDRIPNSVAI
Protocol: This test provides a measure of the intrinsic inhibitory properties of a test compound against soluble 5-LO in an extracellular environment. • b) An in vitro assay system involving incubating a test compound with heparinised human blood, prior to challenge with the calcium ionophore A23187 and then indirectly measuring the inhibitory effects on 5-LO by assaying the amount of LTB₄ using specific radioimmunoassays described by Carey and Forder (F. Carey and R.A. Forder, Prostaglandins, Leukotrienes Med., 1986, 22, 57; Prostaglandins, 1984, 28, 666; Brit. J. Pharmacol. 1985, 84, 34P) which involve the use of a protein-LTB₄ conjugate produced using the procedure of Young et alia (Prostaglandins, 1983, 26(4), 605-613). […] This test provides an indication of the effects of a test compound against 5-LO and also cyclooxygenase in the presence of blood cells and proteins.

For `CSC1(c2cccc(OCc3ccc4ccccc4c3)c2)CCOCC1` [Example 1, 4-methylthio-4-[3-(naphth-2-ylmethoxy)phenyl]tetrahydropyran], which “oral ED₅₀(LTB₄)” value [1] is on record?
Its value is 8 mg/kg.

And the IC50 [2]?
Its IC50 is 50 nM.
